# Experimental data reported in ChEMBL document CHEMBL2203150, “CXCR3 antagonists: quaternary ammonium salts equipped with biphenyl- and polycycloaliphatic-anchors” (Bioorg Med Chem, 2011).
# Target: T1, C-X-C chemokine receptor type 3 (Homo sapiens, UniProt P49682)
# T1 sequence (P49682 whole entry): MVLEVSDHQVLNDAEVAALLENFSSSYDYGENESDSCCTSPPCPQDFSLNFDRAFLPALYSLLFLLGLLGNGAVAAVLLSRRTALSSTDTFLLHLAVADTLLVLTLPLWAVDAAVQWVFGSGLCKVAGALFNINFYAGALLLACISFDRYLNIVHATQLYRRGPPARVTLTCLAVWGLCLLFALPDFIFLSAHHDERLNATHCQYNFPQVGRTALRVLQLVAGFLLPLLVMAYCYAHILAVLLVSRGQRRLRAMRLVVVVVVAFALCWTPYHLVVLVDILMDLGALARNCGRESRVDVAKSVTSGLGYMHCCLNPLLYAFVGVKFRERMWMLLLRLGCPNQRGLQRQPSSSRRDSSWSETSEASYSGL
# Test: Displacement of [125I]-CXCL10 from human CXCR3 expressed in HEK293 cells
# Format: cell-based
# Conditions: not given
row,SMILES,Ki
1,CN(CC1=CC[C@H]2C[C@@H]1C2(C)C)Cc1ccc(F)cc1,6.31 µM
2,CN(CC1=CC[C@H]2C[C@@H]1C2(C)C)Cc1ccc2oc3ccccc3c2c1,> 0.316 µM
3,C[N+](C)(CCC12CC3CC(CC(C3)C1)C2)Cc1ccc(I)cc1,0.631 µM
4,CC1(C)[C@@H]2CC[C@@]1(C)C(C[N+](C)(C)Cc1ccc(I)cc1)C2 (mixture of isomers),1.58 µM
5,CC1(C)[C@H]2CC=C(C[N+](C)(C)Cc3ccccc3I)[C@@H]1C2,1.58 µM
6,CC1(C)[C@H]2CC=C(C[N+](C)(C)Cc3ccc(-c4cccc(Cl)c4)cc3)[C@@H]1C2,0.126 µM
7,COc1ccc(-c2ccc(CN(C)CC3=CC[C@H]4C[C@@H]3C4(C)C)cc2)cc1OC,> 0.316 µM
8,C[N+](C)(Cc1ccc(I)cc1)CC12CC3CC(CC(C3)C1)C2,2 µM
9,CC1(C)[C@H]2CC=C(C[N+](C)(C)Cc3ccc4c(c3)Cc3ccccc3-4)[C@@H]1C2,0.501 µM
10,CC1(C)[C@H]2CC=C(C[N+](C)(C)Cc3ccc(Cl)cc3)[C@@H]1C2,0.2 µM
11,CC1(C)[C@H]2CC=C(C[N+](C)(C)Cc3ccc(-c4cc(Cl)cc(Cl)c4)cc3)[C@@H]1C2,0.398 µM
12,CN(CC1=CC[C@H]2C[C@@H]1C2(C)C)Cc1ccccc1I,5.01 µM
13,CN(CC1=CC[C@H]2C[C@@H]1C2(C)C)Cc1ccc(-c2cccc(Cl)c2)cc1,3.98 µM
14,CC(=O)c1cccc(-c2ccc(C[N+](C)(C)CC3=CC[C@H]4C[C@@H]3C4(C)C)cc2)c1,0.631 µM
15,CCN(CC1=CC[C@H]2C[C@@H]1C2(C)C)Cc1ccc(I)cc1,3.98 µM
16,CC1(C)[C@H]2CC=C(CN3CCc4ccccc4C3)[C@@H]1C2,12.6 µM
17,COC(=O)c1cccc(-c2ccc(CN(C)CC3=CC[C@H]4C[C@@H]3C4(C)C)cc2)c1,> 0.316 µM
18,CN(C/C1=C/CCCCCC1)Cc1ccc(I)cc1 (mixture of isomers),7.94 µM
19,CN(CC1=CC[C@H]2C[C@@H]1C2(C)C)Cc1ccc(-c2ccsc2)cc1,3.98 µM
20,CN(CC1=CC[C@H]2C[C@@H]1C2(C)C)Cc1ccc(-c2cccc(N)c2)cc1,6.31 µM
21,CN(CC1=CC[C@H]2C[C@@H]1C2(C)C)Cc1cccc(I)c1,7.94 µM

row,SMILES,Ki
1,CC1(C)[C@H]2CC=C(C[N+](C)(C)Cc3ccc(-c4cccc([N+](=O)[O-])c4)cc3)[C@@H]1C2,0.2 µM
2,CN(CC1=CC[C@H]2C[C@@H]1C2(C)C)Cc1ccc(Oc2ccccc2)cc1,> 0.316 µM
3,CN(CC1=CC[C@H]2C[C@@H]1C2(C)C)Cc1ccc(-c2ccoc2)cc1,6.31 µM
4,CC1(C)[C@H]2CC=C(C[N+](C)(C)Cc3cccc(I)c3)[C@@H]1C2,2 µM
5,CN(CC1=CC[C@H]2C[C@@H]1C2(C)C)Cc1ccc(Br)cc1,3.16 µM
6,CC1(C)[C@H]2CC=C(C[N+](C)(C)Cc3ccccc3)[C@@H]1C2,3.98 µM
7,CC1(C)[C@H]2CC=C(C[N+](C)(C)CCc3ccc(Cl)cc3)[C@@H]1C2,1 µM
8,CN(CC1=CC[C@H]2C[C@@H]1C2(C)C)Cc1ccc2c(c1)Cc1ccccc1-2,> 0.316 µM
9,CN(CC1=CC[C@H]2C[C@@H]1C2(C)C)Cc1ccc(-c2cccc(F)c2)cc1,2.51 µM
10,CC1(C)[C@H]2CC=C(C[N+]3(C)CCc4ccccc4C3)[C@@H]1C2 (stereo partly drawn),2.51 µM
11,CC1(C)[C@H]2CC=C(C[N+](C)(C)Cc3ccc(Oc4ccccc4)cc3)[C@@H]1C2,2 µM
12,CC1(C)[C@H]2CC=C(C[N+](C)(C)Cc3ccc(Cl)c(Cl)c3)[C@@H]1C2,0.398 µM
13,CC1(C)[C@H]2CC=C(C[N+](C)(C)Cc3ccc(-c4ccccc4F)cc3)[C@@H]1C2,0.631 µM
14,Cc1cccc(-c2ccc(CN(C)CC3=CC[C@H]4C[C@@H]3C4(C)C)cc2)c1,> 0.316 µM
15,CC[N+](C)(CC1=CC[C@H]2C[C@@H]1C2(C)C)Cc1ccc(I)cc1 (stereo partly drawn),0.631 µM
16,CN(CCc1ccc(Cl)cc1)CC1=CC[C@H]2C[C@@H]1C2(C)C,5.01 µM
17,CN(CCC12CC3CC(CC(C3)C1)C2)Cc1ccc(I)cc1,5.01 µM
18,CC1(C)[C@H]2CC=C(C[N+](C)(C)Cc3ccc(-c4ccoc4)cc3)[C@@H]1C2,0.251 µM
19,C[N+](C)(Cc1ccc(I)cc1)CC1C2CC3CC(C2)CC1C3 (stereo not drawn),0.794 µM
20,CN(CC1=CC[C@H]2C[C@@H]1C2(C)C)Cc1ccc(Cl)cc1,2.51 µM
21,CN(Cc1ccc(I)cc1)CC1C[C@H]2CC[C@]1(C)C2(C)C (mixture of isomers),7.94 µM

# Second part, the molecule after the results:
row,Ki,SMILES
1,> 0.316 µM,CN(CC1=CC[C@H]2C[C@@H]1C2(C)C)Cc1ccc(-c2cccc(O)c2)cc1
2,1 µM,Cn1c2ccccc2c2ccc(C[N+](C)(C)CC3=CC[C@H]4C[C@@H]3C4(C)C)cc21
3,3.16 µM,CN(CC1=CC[C@H]2C[C@@H]1C2(C)C)Cc1ccc(I)cc1
4,> 0.316 µM,CN(CC1=CC[C@H]2C[C@@H]1C2(C)C)Cc1ccc2c3ccccc3n(C)c2c1
5,0.316 µM,CC1(C)[C@H]2CC=C(C[N+](C)(C)Cc3ccc(-c4cccc(F)c4)cc3)[C@@H]1C2
6,> 0.316 µM,CC(=O)c1cccc(-c2ccc(CN(C)CC3=CC[C@H]4C[C@@H]3C4(C)C)cc2)c1
7,3.16 µM,CN(CC1=CC[C@H]2C[C@@H]1C2(C)C)Cc1ccc(Cl)c(Cl)c1
8,0.501 µM,CC1(C)[C@H]2CC=C(C[N+](C)(C)Cc3ccc(-c4ccc(Cl)cc4)cc3)[C@@H]1C2
9,7.94 µM,CN(Cc1ccc(I)cc1)CC1C2CC3CC(C2)CC1C3 (stereo not drawn)
10,0.251 µM,CC1(C)[C@H]2CC=C(C[N+](C)(C)Cc3ccc(I)cc3)[C@@H]1C2
11,2.51 µM,Ic1ccc(CNCC2C3CC4CC(C3)CC2C4)cc1 (stereo not drawn)
12,> 0.316 µM,CN(CC1=CC[C@H]2C[C@@H]1C2(C)C)Cc1ccc(-c2cccc(C(F)(F)F)c2)cc1
13,0.316 µM,CC1(C)[C@H]2CC=C(C[N+](C)(C)Cc3ccc(-c4ccccc4)cc3)[C@@H]1C2
14,> 0.316 µM,CN(CC1=CC[C@H]2C[C@@H]1C2(C)C)Cc1cccc(-c2ccccc2)c1
15,3.16 µM,CC1(C)[C@H]2CC=C(C[N+](C)(C)Cc3cccc(-c4ccccc4)c3)[C@@H]1C2
16,0.501 µM,COc1ccc(-c2ccc(C[N+](C)(C)CC3=CC[C@H]4C[C@@H]3C4(C)C)cc2)cc1OC
17,0.2 µM,CC1(C)[C@H]2CC=C(C[N+](C)(C)Cc3ccc(-c4ccsc4)cc3)[C@@H]1C2
18,> 0.316 µM,CN(CC1=CC[C@H]2C[C@@H]1C2(C)C)Cc1ccc(-c2ccc(Cl)cc2)cc1

row,Ki,SMILES
1,1.26 µM,CC1(C)[C@H]2CC=C(C[N+](C)(C)Cc3ccc(F)cc3)[C@@H]1C2
2,15.8 µM,CN(CC1=CC[C@H]2C[C@@H]1C2(C)C)Cc1ccccc1
3,0.501 µM,CC1(C)[C@H]2CC=C(C[N+](C)(C)Cc3ccc4oc5ccccc5c4c3)[C@@H]1C2
4,1 µM,C[N+](C)(C/C1=C/CCCCCC1)Cc1ccc(I)cc1 (mixture of isomers)
5,0.316 µM,CC1(C)[C@H]2CC=C(C[N+](C)(C)Cc3ccc(Br)cc3)[C@@H]1C2
6,3.98 µM,N=C(Nc1ccc(I)cc1)NC1C2CC3CC(C2)CC1C3 (stereo not drawn)
7,1.26 µM,CC1(C)[C@H]2CC=C(C[N+](C)(C)Cc3ccc(-c4ccc(C(F)(F)F)cc4)cc3)[C@@H]1C2
8,3.16 µM,CC1(C)[C@H]2CC=C(C[N+](C)(C)Cc3ccc(-c4cccc(N)c4)cc3)[C@@H]1C2
9,2 µM,CN(CC1=CC[C@H]2C[C@@H]1C2(C)C)Cc1ccc(-c2cccc([N+](=O)[O-])c2)cc1
10,0.398 µM,Cc1cccc(-c2ccc(C[N+](C)(C)CC3=CC[C@H]4C[C@@H]3C4(C)C)cc2)c1
11,1.58 µM,CC1(C)[C@H]2CC=C(C[N+](C)(C)Cc3ccc(-c4cccc(O)c4)cc3)[C@@H]1C2
12,3.16 µM,CN(CC1=CC[C@H]2C[C@@H]1C2(C)C)Cc1ccc(-c2ccccc2)cc1
13,1 µM,COC(=O)c1cccc(-c2ccc(C[N+](C)(C)CC3=CC[C@H]4C[C@@H]3C4(C)C)cc2)c1
14,0.501 µM,CC1(C)[C@H]2CC=C(C[N+](C)(C)Cc3ccc(-c4cccc(C(F)(F)F)c4)cc3)[C@@H]1C2
15,> 0.316 µM,CN(CC1=CC[C@H]2C[C@@H]1C2(C)C)Cc1ccc(-c2ccccc2F)cc1
16,> 0.316 µM,CN(CC1=CC[C@H]2C[C@@H]1C2(C)C)Cc1ccc(-c2ccc(C(F)(F)F)cc2)cc1
17,> 0.316 µM,CN(CC1=CC[C@H]2C[C@@H]1C2(C)C)Cc1ccc(-c2cc(Cl)cc(Cl)c2)cc1

# Target: T2, C-X-C chemokine receptor type 3 (Homo sapiens) (UniProt P49682)
# T2 sequence (whole entry): T1 sequence (P49682 whole entry)
# Test: Antagonist activity at human CXCR3 expressed in HEK293T cells co-expressing Galphaqi5 assessed as inhibition of CXCL10-induced [3H]-inositolphosphates levels
# Format: functional, cell-based
# Conditions: HEK-293T
SMILES,inhibition,pKb
CC1(C)[C@H]2CC=C(C[N+](C)(C)Cc3ccc(-c4cccc(Cl)c4)cc3)[C@@H]1C2,–,6.3
CC1(C)[C@H]2CC=C(C[N+](C)(C)Cc3ccc(Cl)cc3)[C@@H]1C2,–,6.3

# Other lines, results leading:
inhibition,pKb,SMILES
Dose-dependent effect,8,CCOc1ccc(-n2c([C@@H](C)N(Cc3cccnc3)C(=O)Cc3ccc(OC(F)(F)F)cc3)nc3ncccc3c2=O)cc1
–,6.6,CC1(C)[C@H]2CC=C(C[N+](C)(C)Cc3ccc(I)cc3)[C@@H]1C2
–,6.4,CC1(C)[C@H]2CC=C(C[N+](C)(C)Cc3ccc(-c4ccsc4)cc3)[C@@H]1C2

# Target: T1, C-X-C chemokine receptor type 3
# Test: Displacement of [125I]-CXCL11 from human CXCR3 expressed in HEK293 cells
# Format: cell-based
# Conditions: not given
row,SMILES,Ki
1,CC1(C)[C@H]2CC=C(C[N+](C)(C)Cc3ccc(-c4cccc(Cl)c4)cc3)[C@@H]1C2,0.316 µM
2,CC1(C)[C@H]2CC=C(C[N+](C)(C)Cc3ccc(Cl)cc3)[C@@H]1C2,0.501 µM

# Next, values leading:
row,Ki,SMILES
1,0.398 µM,CC1(C)[C@H]2CC=C(C[N+](C)(C)Cc3ccc(I)cc3)[C@@H]1C2
2,0.316 µM,CC1(C)[C@H]2CC=C(C[N+](C)(C)Cc3ccc(-c4ccsc4)cc3)[C@@H]1C2
3,3.98 µM,N=C(Nc1ccc(I)cc1)NC1C2CC3CC(C2)CC1C3 (stereo not drawn)
